# According to patent publication US20100069347A1, “HETEROCYCLYL-SUBSTITUTED ANTI-HYPERCHOLESTEROLEMIC COMPOUNDS” (priority 2006, published 2010):
# Assays:
# [1] = test system: cholesterol absorption; assay: Cholesterol Absorption Assay in Rat; type: in vivo; details: CD male rats, oral dosing, at the highest dose tested (0.0003 to 1 mg/kg); [3H]-cholesterol counts in liver and plasma
# Experimental: Compounds of this invention were determined to inhibit cholesterol absorption employing the Cholesterol Absorption Assay in Rat, below. This assay involves comparing a test compound to ezetimibe with respect to their ability to inhibit cholesterol absorption in rat.
# Cholesterol Absorption Assay in Rats: CD male rats (n=5/group), aged 5 weeks, were dosed orally with 0.5 ml 0.25% methyl cellulose solution with or without test compound or ezetimibe (0.0003 to 1 mg/kg). 0.5 to 16 hrs later all of the rats were dosed orally with 0.5 ml INTRALIPID® containing 5 μCi [^3H]-cholesterol per rat. Five hours later, the animals were euthanized, and liver and blood were collected. Cholesterol counts in liver and plasma were determined, and percent inhibition of cholesterol absorption was calculated.
melting point,Structure (SMILES),inhibition of cholesterol absorption [1]
104 °C,"O=C1[C@H](CC[C@H](O)c2ccc(F)cc2)[C@@H](c2ccc(CCC(O)(CO)CO)cc2)N1c1ccc(CCc2nc[nH]n2)cc1 [Example 2, (3R,4S)-4-{4-[3,4-dihydroxy-3-(hydroxymethyl)butyl]phenyl}-3-[(3S)-3-(4-fluorophenyl)-3-hydroxypropyl]-1-{4-[2-(1H-1,2,4-triazol-5-yl)ethyl]phenyl}azetidin-2-one]",–
–,"O=C1[C@H](CC[C@H](O)c2ccc(F)cc2)[C@@H](c2ccc(O)cc2)N1c1ccc(F)cc1 [ezetimibe, Ezetimibe]",> 90%
